In PubChem BioAssay AID248 (DTP/NCI, 2004):
Inconclusive results and toxic doses are left out. No stated cut-off is given here; in the data, active means T/C of 150% or more; inactive means T/C below 125%.

Test system: L1210 leukemia ip in BDF1 mice, survival T/C
Assay: NCI In Vivo Anticancer Drug Screen. Data for tumor model L1210 Leukemia (intraperitoneal) in B6D2F1 (BDF1) mice
Settings: endpoint: mean survival time, higher = longer survival
Method in brief: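 Tumor cells were implanted, animals were treated, and survival was followed. The result divides the treated measurement by the vehicle-control measurement.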

[1] = dose: 100.0 mg/kg/injection, schedule: Q01DX001 (ip), vehicle: saline with Tween-80
[2] = dose: 100.0 mg/kg/injection, schedule: Q04DX003 (ip), vehicle: saline with Tween-80
[3] = dose: 200.0 mg/kg/injection, schedule: Q01DX001 (ip), vehicle: saline with Tween-80
[4] = dose: 200.0 mg/kg/injection, schedule: Q04DX003 (ip), vehicle: saline with Tween-80
[5] = dose: 400.0 mg/kg/injection, schedule: Q04DX003 (ip), vehicle: saline with Tween-80
[6] = dose: 100.0 mg/kg/injection, schedule: Q04DX003 (ip), vehicle: Klucel (hydroxypropylcellulose) (HPC)
[7] = dose: 200.0 mg/kg/injection, schedule: Q04DX003 (ip), vehicle: Klucel (hydroxypropylcellulose) (HPC)
[8] = dose: 400.0 mg/kg/injection, schedule: Q04DX003 (ip), vehicle: Klucel (hydroxypropylcellulose) (HPC)
[9] = dose: 100.0 mg/kg/injection, schedule: Q04DX002 (ip), vehicle: saline with Tween-80
[10] = dose: 200.0 mg/kg/injection, schedule: Q04DX002 (ip), vehicle: saline with Tween-80
[11] = dose: 400.0 mg/kg/injection, schedule: Q04DX002 (ip), vehicle: saline with Tween-80
[12] = dose: 100.0 mg/kg/injection, schedule: Q01DX009 (ip), vehicle: Klucel (hydroxypropylcellulose) (HPC)
[13] = dose: 200.0 mg/kg/injection, schedule: Q01DX009 (ip), vehicle: Klucel (hydroxypropylcellulose) (HPC)
[14] = dose: 400.0 mg/kg/injection, schedule: Q01DX009 (ip), vehicle: Klucel (hydroxypropylcellulose) (HPC)
[15] = dose: 100.0 mg/kg/injection, schedule: Q01DX001 (ip), vehicle: other
[16] = dose: 200.0 mg/kg/injection, schedule: Q01DX001 (ip), vehicle: other
[17] = dose: 400.0 mg/kg/injection, schedule: Q01DX001 (ip), vehicle: other

Measured: T/C

CN(C)CCN(C)/N=N/c1nc[nH]c1C(N)=O
inactive: [1] 101 % of control | dose: 100.0 mg/kg/injection, schedule: Q01DX009 (ip), vehicle: saline with Tween-80 108 % of control | [2] 108 % of control | [3] 95 % of control | dose: 200.0 mg/kg/injection, schedule: Q01DX009 (ip), vehicle: saline with Tween-80 100 % of control | [4] 113 % of control | dose: 400.0 mg/kg/injection, schedule: Q01DX001 (ip), vehicle: saline with Tween-80 110 % of control | dose: 400.0 mg/kg/injection, schedule: Q01DX009 (ip), vehicle: saline with Tween-80 95 % of control | [5] 106 % of control

CCC(C)C(N)C(=O)O (centres undefined)
inactive: [6] 103 % of control | [7] 106 % of control | [8] 101 % of control

CCOC(=O)CC1OC(=O)c2ccccc21 (centres undefined)
inactive: [9] 97 % of control | [10] 104 % of control | [11] 108 % of control

O=C(CCCC(=O)N/N=C/c1ccc(I)cc1)N/N=C\c1ccc(I)cc1
inactive: dose: 50.0 mg/kg/injection, schedule: Q01DX001 (ip), vehicle: saline 100 % of control | dose: 100.0 mg/kg/injection, schedule: Q01DX001 (ip), vehicle: saline 93 % of control | dose: 200.0 mg/kg/injection, schedule: Q01DX001 (ip), vehicle: saline 93 % of control | dose: 400.0 mg/kg/injection, schedule: Q01DX001 (ip), vehicle: saline 97 % of control

CC1=NNC(=O)C1CCO (centres undefined)
inactive: dose: 25.0 mg/kg/injection, schedule: Q01DX009 (ip), vehicle: Klucel (hydroxypropylcellulose) (HPC) 98 % of control | dose: 50.0 mg/kg/injection, schedule: Q01DX009 (ip), vehicle: Klucel (hydroxypropylcellulose) (HPC) 98 % of control | [12] 92 % of control | [6] 89 % of control | [13] 95 % of control | [7] 96 % of control | [14] 97 % of control | [8] 100 % of control

C#CC(OC(=O)NC(CCSC)C(=O)OC)(c1ccccc1)c1ccccc1 (centres undefined)
inactive: [1] 99 % of control | [3] 99 % of control

CN=NC(=O)c1cccc2c1-c1ccccc1C2=O
inactive: [15] 87 % of control | [16] 96 % of control | [17] 93 % of control

O=C(CC(O)(C(F)(F)F)C(F)(F)F)c1cc(Cl)ccc1Cl
inactive: [2] 112 % of control | [4] 105 % of control | [5] 103 % of control

O[Si](O)(c1ccccc1)c1ccccc1
inactive: [9] 92 % of control | [10] 87 % of control | [11] 92 % of control

NC(=S)c1ccc2ccc3cccnc3c2n1
inactive: dose: 50.0 mg/kg/injection, schedule: Q04DX003 (ip), vehicle: saline with Tween-80 95 % of control | [2] 104 % of control | [4] 106 % of control

CCCCCCCCCCCCCCCc1ccc2c3c(cccc13)C=C2
inactive: dose: 100.0 mg/kg/injection, schedule: Q01DX001 (ip), vehicle: carboxymethylcellulose (CMC) 92 % of control | dose: 200.0 mg/kg/injection, schedule: Q01DX001 (ip), vehicle: carboxymethylcellulose (CMC) 92 % of control | dose: 400.0 mg/kg/injection, schedule: Q01DX001 (ip), vehicle: carboxymethylcellulose (CMC) 90 % of control

C#CCOCCC#N
inactive: dose: 100.0 mg/kg/injection, schedule: Q04DX002 (ip), vehicle: saline 101 % of control | dose: 200.0 mg/kg/injection, schedule: Q04DX002 (ip), vehicle: saline 94 % of control

COc1ccc2ccc(=O)oc2c1CC=C(C)C
inactive: [15] 98 % of control | [16] 93 % of control | [17] 101 % of control

O=C(Cl)C1(Br)CC2c3ccccc3C1([N+](=O)[O-])c1ccccc12 (centres undefined)
inactive: [12] 88 % of control | [6] 108 % of control | [13] 91 % of control | [7] 95 % of control | [14] 96 % of control | [8] 104 % of control

CC(C)(C)C1COC(=O)C1 (centres undefined)
inactive: dose: 10.0 mg/kg/injection, schedule: Q01DX001 (ip), vehicle: saline 103 % of control | dose: 20.0 mg/kg/injection, schedule: Q01DX001 (ip), vehicle: saline 98 % of control

COc1ccc(OC)c(NC(=O)Oc2ccc(SC)cc2)c1
inactive: [6] 86 % of control | [7] 88 % of control | [8] 86 % of control

CCCCCCCCCCCCC(O)C(O)CCCCCCCC(=O)O (centres undefined)
inactive: [12] 94 % of control | [13] 93 % of control | [14] 93 % of control

CCN1CCCC(OC(=O)c2cccc3[nH]ccc23)C1 (centres undefined)
inactive: dose: 100.0 mg/kg/injection, schedule: Q01DX001 (ip), vehicle: Klucel (hydroxypropylcellulose) (HPC) 93 % of control | [6] 103 % of control | dose: 200.0 mg/kg/injection, schedule: Q01DX001 (ip), vehicle: Klucel (hydroxypropylcellulose) (HPC) 97 % of control | [7] 101 % of control | dose: 400.0 mg/kg/injection, schedule: Q01DX001 (ip), vehicle: Klucel (hydroxypropylcellulose) (HPC) 98 % of control | [8] 101 % of control
